Laboratory results published in patent US12582666B2, “Low dose therapeutic treatment” (Syqe Medical Ltd., priority 2016, dated 2026).

What was measured:
CB1 and CB2 receptors = details: comparison of the two receptors; cited from earlier work
GPR55 = GPR55 (Homo sapiens, UniProt Q9Y2T6); details: cited from earlier work
5-HT1A receptor = target: T1, 5-HT1A receptor (Homo sapiens, UniProt P08908); details: cited from earlier work
T1 sequence (P08908 1-422): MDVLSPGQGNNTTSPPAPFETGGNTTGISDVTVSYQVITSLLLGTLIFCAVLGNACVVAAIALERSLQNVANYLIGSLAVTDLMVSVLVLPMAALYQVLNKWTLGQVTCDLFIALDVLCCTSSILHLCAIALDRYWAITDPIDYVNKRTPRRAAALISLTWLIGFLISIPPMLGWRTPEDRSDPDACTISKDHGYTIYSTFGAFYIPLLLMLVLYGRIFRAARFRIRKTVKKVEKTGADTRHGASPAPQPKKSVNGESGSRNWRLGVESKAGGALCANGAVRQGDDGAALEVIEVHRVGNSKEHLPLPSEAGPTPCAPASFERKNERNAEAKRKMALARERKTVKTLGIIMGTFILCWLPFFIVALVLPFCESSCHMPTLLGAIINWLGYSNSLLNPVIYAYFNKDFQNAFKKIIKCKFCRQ

[1] = tested on: cancer patients suffering from advanced symptoms and/or side effects of chemotherapy; assay: Inventors' experiments: low dose inhaled THC, at least two hours between doses; format: in vivo, human
Procedure: It has been shown by inventors in experiments performed that an inhaled THC dose of 0.2-2 mg may provide sufficient symptom alleviation for a time period of at least 2 hours, at least 3 hours, at least 4 hours, at least 6 hours or intermediate or longer time periods. […] Other examples of symptoms which may be alleviated by prescribing a low dose regimen may include adverse effects of chemotherapy and/or vomiting and/or weight loss and/or insomnia and/or euphoria and/or drowsiness and/or psychomotor effects and/or cognitive effects, and/or agitation and/or depression.
Cancer patients suffering from advanced symptoms and/or side effects of chemotherapy were treated in accordance with the above described regimen, being delivered a dose of between 0.2-2 mg THC at a single delivery event and waiting at least two hours before the next dose. The patients voluntarily reported their conditions.
In a first case, a cancer patient was admitted to hospital for chemotherapy. They were previously prescribed cannabis for pain, vomiting, nausea and weight loss, which they took by smoking cigarettes. […] In the experiment, the patient was prescribed 3×0.5 mg THC per day, delivered using an inhaler device for example as described hereinabove. The first dose was to be taken 30 minutes before chemotherapy. The patient was allowed to take additional inhalations as needed. […] The patient inhaled the 3 prescribed doses only, and no other medication was prescribed or taken. Later, the same patient readmitted to hospital for an additional round of chemotherapy. This time they chose to inhale THC in four 0.5 mg doses, a first dose in the morning before chemotherapy, second and third doses taken concomitantly at midday (amounting to a single 1 mg dose) and a fourth dose in the evening.
In a second case, a cancer patient was admitted to the hospital for severe pain and in order to resume treatment that they chose to terminate earlier. They were previously prescribed cannabis for pain, cachexia and nausea, in addition to other drugs. Throughout the treatment, they received a continuous morphine drip (400-600 mg) with additional morphine treatment upon need. Before being hospitalized, they had not eaten for a week, suffered from sleep deprivation and was depressed. In the hospital they were provided with an inhaler for example as described hereinabove and during the first day of use they inhaled 0.5 mg THC doses 18 times a day, which included 4 previously prescribed doses of 0.5 mg and many demands for additional pain relief. On the next day they reduced the intake to 1 mg inhalations, 4 times a day, continuing for a period of 8 days.

[2] = tested on: nausea of a patient undergoing chemotherapy; assay: FIG. 11: nausea of a chemotherapy patient treated with 0.5 mg inhaled THC doses; format: in vivo, human; details: first 0.5 mg THC dose 30 minutes before chemotherapy
Procedure: FIG. 11 is a graphical representation of the treatment effect achieved by pulmonary delivery of 0.5 mg THC doses, delivered at time intervals of at least two hours, according to some embodiments of the invention.
In this example, nausea levels of a patient undergoing chemotherapy are shown, as indicated by the arbitrary Y-axis scale. The black line depicts a typical nausea effect that is often witnessed when no special anti-nausea treatment is provided (optionally other than the conventional prophylactic treatment provided normally intravenously in chemotherapy sessions).
Chemotherapy commenced at 7:00 AM, as indicated by the black arrow. […] It may remain high when not treated or even with conventional treatment, although the degree of nausea may fluctuate.
The gray line depicts nausea levels under treatment with 0.5 mg doses of THC, delivered in intervals of at least two hours, indicated by the grey triangles. […] Two additional doses of 0.5 mg THC each, delivered at 12:30 and at 19:00, sufficed to allow the patient to combat the nausea throughout the day.

pain = assay: FIG. 10: pain treated with 0.5 mg inhaled THC doses at intervals of at least two hours; format: in vivo, human
Procedure: FIG. 10 is a graphical representation of a regimen for the treatment of pain by pulmonary delivery of 0.5 mg THC doses delivered in time intervals of at least two hours, according to some embodiments of the invention.
In this use over a time period of 16 hours, 4 doses of 0.5 mg THC each were provided at time intervals of at least two hours between sequential doses, indicated by the grey triangles. The black line represents the symptom level, in this case pain, and the grey line represents psychoactive effects.
The x-axis represents the time of day, and the y-axis represents an arbitrary scale for indicating symptom severity and level of psychoactivity. The scale represents, based on user reports, a grade of the symptoms and a grade of the psychoactive effects, for example compared to a baseline report collected from the patient before treatment.

[3] = cited from earlier work
[4] = single inhaled cannabis dose, Syqe Inhaler

Chain of GPR55 (Q9Y2T6 whole entry, species assumed): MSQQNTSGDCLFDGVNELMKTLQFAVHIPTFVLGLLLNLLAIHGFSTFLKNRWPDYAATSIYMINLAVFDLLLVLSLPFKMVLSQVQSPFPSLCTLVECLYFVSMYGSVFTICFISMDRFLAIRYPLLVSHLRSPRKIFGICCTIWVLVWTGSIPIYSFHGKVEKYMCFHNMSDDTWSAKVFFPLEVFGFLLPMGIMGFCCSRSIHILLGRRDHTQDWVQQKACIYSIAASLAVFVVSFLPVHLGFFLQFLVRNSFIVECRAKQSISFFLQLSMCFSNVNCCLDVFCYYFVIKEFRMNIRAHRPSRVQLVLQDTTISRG

Row | Structure (SMILES) | affinity for the CB1 and CB2 receptors (CB1 and CB2 receptors) | action at GPR55 (GPR55) | action at 5-HT1A receptor (5-HT1A receptor) | eating ([1]; cancer patient, 0.5 mg THC 18 times on first day, then 1 mg 4 times a day for 8 days, with morphine drip) | mood ([1]; cancer patient, 3×0.5 mg THC per day by inhaler) | mood ([1]; cancer patient, inhaled THC with morphine drip) | time period of sufficient symptom alleviation ([1]; inhaled THC dose of 0.2-2 mg) | treatment outcome in additional round of chemotherapy ([1]; same patient, four 0.5 mg inhaled THC doses) | maximum nausea level reached [2] | onset of nausea [2] | time after dose at which pain level begins to rise again (pain; 0.5 mg THC inhaled) | pain level after first dose (pain; 0.5 mg THC inhaled at 6:30, arbitrary scale from user reports) | psychoactivity after first dose (pain; 0.5 mg THC inhaled, arbitrary scale from user reports) | Tmax±SD ([3]; single 15.1±0.1 mg dose of cannabis inhaled with Syqe Inhaler, eight patients) | interindividual variability of Cmax [3, 4] | plasma Cmax increase per mg Δ(9)-THC administered [3, 4]
1 | C=C(C)[C@@H]1CCC(C)=C[C@H]1c1c(O)cc(CCCCC)cc1O [CBD, Cannabidiol] | greater affinity for the CB2 receptor than for the CB1 receptor | antagonist | 5-HT1A receptor agonist | – | – | – | – | – | – | – | – | – | – | – | – | –
2 | CCCCCc1cc(O)c2c(c1)OC(C)(C)[C@@H]1CCC(C)=C[C@@H]21 [THC, Δ9-tetrahydrocannabinol] | approximately equal affinity for the CB1 and CB2 receptors | – | – | ate 3 meals per day | significantly improved mood | significant mood improvement | at least 2 hours | effective | significant reduction in the maximum level reached | significant delay in the onset of nausea | about 2 hours | effective to dramatically reduce the pain level | A rise in psychoactivity occurs | 3 ± 1 min | 25.3% | 12.3 ng/mL/mg THC
